This is an account of results in patent publication US20250154145A1, “OXER1 ANTAGONISTS AND USES THEREOF” (Fairhaven Pharmaceuticals Ins., priority 2021, published 2025).

One assay relates to neutrophils. Put plainly: Neutrophil calcium flux assay (5-OXO-ETE-stimulated, Indo-1 fluorescence). The class given is cell-based. The conditions noted are these: Neutrophil, 5-OXO-ETE-stimulated calcium flux. A digest of the protocol:
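Indo-1-loaded neutrophils (5×10^6 cells/ml, 30 min at 37 °C) in HBSS with Ca/Mg and HEPES, pre-incubated 5 min with antagonist or buffer. Stimulated with 5-OXO-ETE added at 200 nM (4× stock); fluorescence (ex 331/em 410 nm) read every 5 s for 30 cycles, expressed as net fluorescence.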

Another assay concerns the target T1, Human OXER1 (Homo sapiens, UniProt Q8TDS5).
T1 construct: host or cells: HEK293 cells, transient transfection
The assay can be described thus: BRET early endosome trafficking assay (OXER1-Rluc8 / rGFP-FYVE in HEK293 cells). The class given is cell-based. The conditions noted are these: HEK293 cells transfected with OXER1-Rluc8 and rGFP-FYVE, 5-oxo-ETE agonist. An excerpt: Background—The following assay can be used for determination of OXER1 activation in living HEK293 cells. Signalling functions of GPCRs are tightly regulated by endocytosis, the targeting of receptors to endosomes and their sorting to lysosomes or recycling to the plasma membrane. The early endosomes (EEs) trafficking assay (Namkung et al., Monitoring G protein-coupled receptor and β-arrestin trafficking in live cells using enhanced bystander BRET, Nat Commun 2016, 7: 12178) uses Rluc8-tagged OXER1 and Renilla GFP (rGFP) attached to the FYVE domain from human endofin/zinc finger FYVE domain-containing protein 16, which binds phosphatidylinositol 3-phosphate in EEs. Agonist stimulation of OXER1-Rluc8 leads to trafficking of the receptor to EEs, and ensuing increase of the donor concentration relative to the rGFP-FYVE acceptor anchored in the same cellular compartment, and thus results in an increase in BRET signal.
Plasmids—Human OXER1 VersaClone cDNA was obtained from R&D Systems. Rluc8 (A55T, C124A, S130A, K136R, A143M, M185V, M253L, and S287L variant of theRenilla renformis luciferase) gBlocks gene fragment (Integrated DNA Technologies, IA) was inserted with linker in frame at the C-terminus of OXER1. The FYVE domain from human endofin (residues Q739 to K806) attached in frame at the C terminus of a humanized Renilla GFP (rGFP), were synthesized as gBlocks gene fragments.
Bioluminescence Resonance Energy Transfer (BRET) Measurement—HEK293 cells were transfected with OXER1-Rluc8 and rGFP-FYVE. The following day, transiently transfected cells were seeded in 96-well white clear bottom microplates coated with poly-D-lysine and left in culture for 24 hours. Cells were washed once with Tyrode's buffer (140 mmol/L NaCl, 1 mmol/L CaCl2, 2.7 mmol/L KCl, 0.49 mmol/L MgCl2, 0.37 mmol/L NaH2PO4, 5.6 mmol/L glucose, 12 mmol/L NaHCO3, and 25 mmol/L HEPES, pH 7.5) before performing assays in Tyrode's buffer. Test compounds were incubated with cells for 15 minutes at 37° C. before addition of […] of the OXER1 agonist 5-oxo-6E,8Z,1IZ,14Z-eicosatetraenoic acid (5-oxo-ETE) for 45 minutes at 37° C. The Rluc8 substrate coelenterazine 400A (Prolume, Lakeside, AZ) was added at a final concentration of […] and BRET readings were collected using a Spark or Infinite M1000 microplate reader (Tecan, Morrisville, NC). BRET^2 readings between Rluc8 and rGFP were collected by sequential integration of the signals detected in the 370 to 450 nm (Rluc8) and 510 to 540 nm (rGFP) windows. The BRET signal was calculated as the ratio of light emitted by acceptor (rGFP) over the light emitted by donor (Rluc8). Ligand-promoted net BRET values were calculated by subtracting vehicle-induced net BRET from ligand-induced net BRET.

T1 sequence (Q8TDS5 whole entry): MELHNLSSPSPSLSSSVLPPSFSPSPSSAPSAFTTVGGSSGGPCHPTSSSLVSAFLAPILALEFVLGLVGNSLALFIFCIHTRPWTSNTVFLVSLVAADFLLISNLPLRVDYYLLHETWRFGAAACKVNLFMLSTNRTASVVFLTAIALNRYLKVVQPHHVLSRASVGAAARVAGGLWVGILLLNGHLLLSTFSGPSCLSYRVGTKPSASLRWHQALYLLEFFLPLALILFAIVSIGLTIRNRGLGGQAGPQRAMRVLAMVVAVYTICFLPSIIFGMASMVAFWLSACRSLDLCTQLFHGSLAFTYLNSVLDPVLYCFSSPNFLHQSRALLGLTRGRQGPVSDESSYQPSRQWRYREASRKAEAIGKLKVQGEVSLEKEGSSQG

With `C[C@H](CC(=O)O)CC(=O)n1c(CCCCCCc2cccc(Cl)c2)cc2ccc(Cl)cc21` [Compound I-39], the 50% inhibitory concentration (IC50) in the assay on neutrophils was greater than 0.3 µM; at Human OXER1, 0.1 to 0.3 µM.

Consider `C[C@H](CC(=O)O)CC(=O)c1c(CCCCCCc2cccc(Cl)c2)oc2ccc(Cl)cc12` [Compound I-21], for which the concentration for half-maximal inhibition (IC50) is greater than 0.3 µM in the assay with neutrophils and 0.1 to 0.3 µM on Human OXER1.

Take `C[C@H](CC(=O)NO)CC(=O)c1c(CCCCCCc2cccc(Cl)c2)n(C)c2ccc(Cl)cc12` [Compound I-17]: the concentration for half-maximal inhibition (IC50) in the assay on neutrophils and on Human OXER1 was greater than 0.3 µM in each case.

In the case of `C[C@H](CC(=O)O)CC(=O)c1c(CCCCOCc2cccc(Cl)c2)n(C)c2ccc(Cl)cc12` [Compound I-60], the IC50 in the assay on neutrophils was less than 0.1 µM; on Human OXER1 it was 0.1 to 0.3 µM.

`C[C@H](CC(=O)O)CC(=O)c1c(CCCCCC(=O)c2cccc(Cl)c2)n(C)c2ccc(Cl)cc12` [Compound I-45]: the half-maximal inhibitory concentration (IC50) with neutrophils and at Human OXER1 was 0.1 to 0.3 µM in each case.

In the case of `C[C@H](CC(=O)O)CC(=O)c1c(CCCCCCc2cccc(Cl)c2)n(C)c2ccc(Cl)cc12` [Compound I-2], the half-maximal inhibitory concentration (IC50) with neutrophils and on Human OXER1 was less than 0.1 µM in each case.

Consider `CCCCCCc1c(C(=O)C[C@H](C)CC(=O)O)c2cc(Cl)ccc2n1C` [Compound I-11], for which the IC50 in the assay with neutrophils and on Human OXER1 was 0.1 to 0.3 µM in each case.

For `CC(CC(=O)O)CC(=O)c1c(CCCCOCc2ccccc2)n(C)c2ncc(C#N)cc12` (stereo not drawn) [Compound I-104], the figures for the IC50 in the assay on neutrophils and at Human OXER1 were less than 0.1 µM and 0.1 to 0.3 µM, respectively.

As for `CONC(=O)C[C@@H](C)CC(=O)c1c(CCCCCCc2cccc(Cl)c2)n(C)c2ccc(Cl)cc12` [Compound I-19], the IC50 with neutrophils and on Human OXER1 was greater than 0.3 µM each time.

As to `C[C@H](CC(=O)O)CC(=O)c1c([C@@H](O)CCCCCc2cccc(Cl)c2)n(C)c2ccc(Cl)cc12` [Compound I-3], the IC50 was greater than 0.3 µM with neutrophils and less than 0.1 µM at Human OXER1.

With `C[C@H](CC(=O)O)CC(=O)c1c(CCCCCCc2ccc(O)cc2)n(C)c2ccc(Cl)cc12` [Compound I-10], the IC50 with neutrophils and at Human OXER1 was less than 0.1 µM in each case.

For `C[C@H](CC(=O)O)CC(=O)c1c(CCCCCC(O)c2cccc(Cl)c2)n(C)c2ncc(Cl)cc12` (stereo partly drawn) [Compound I-85], the IC50 in the assay on neutrophils and on Human OXER1 was less than 0.1 µM throughout.

As for `C[C@H](CC(=O)O)CC(=O)c1c(CCCCOCc2ccccc2)n(C)c2ncc(C#N)cc12` [Compound I-105], the 50% inhibitory concentration (IC50) with neutrophils was less than 0.1 µM; at Human OXER1, 0.1 to 0.3 µM.

Take `CC(C)CCOCc1c(C(=O)C[C@H](C)CC(=O)O)c2cc(Cl)ccc2n1C` [Compound I-73]: the IC50 in the assay with neutrophils and on Human OXER1 was greater than 0.3 µM in each case.

Consider `C[C@@H](CC(=O)c1c(CCCCCCc2cccc(Cl)c2)n(C)c2ccc(Cl)cc12)Cc1nnn[nH]1` [Compound I-13], for which the IC50 in the assay with neutrophils and at Human OXER1 was less than 0.1 µM each time.
